# Patent US20040121307A1, “Early detection of cellular differentiation using optophoresis” (Genoptix, Inc, priority 2002, published 2004)
# Columns and labels:
# Type in all cases: cell-based
# U937 cells [1] = test: Separation of drug treated and untreated leukemia cells, escape velocity; conditions: PMA 5 ug/mL, 6 hours
# Description: PMA was dissolved in ethanol at a concentration of 5 mg/mL. 3 mls of U937 cells grown in RPMI 1640 media with supplements were removed from the culture flask and 1 ml was placed into each of three eppendorf tubes. Cells from the first tube were pelleted for 4 minutes at 10,000 rpm and resuspended in 250 uL PBS/1% BSA buffer for escape velocity measurements. PMA was added to the remaining two tubes of U937 cells to a final concentration of 5 ug/mL. These tubes were vortexed and placed in a 37° C. water bath for either one hour or six hours. At the end of the time point, the tube was removed, cells were pelleted and then resuspended as described above and escape velocity measurements taken.
# U937 cells [2] = test: Experiment 2: time and concentration dependence of PMA, escape velocity; set-up: escape velocity, Ave.: unit not given here
# Description: This experiment was conducted to test the effect of PMA concentration on the escape velocity of U937 cells. PMA concentrations of 10 ng/ml, 1 ng/ml, 100 pg/ml, 10 pg/ml and 1 pg/ml were tested. The control sample received EtOH and not PMA.
# The PMA concentration was tested at three timepoints: 1 hour, 3 hours and 5 hours. At each timepoint, 300 μl of cells were removed from each flask. The cells were then spun for 5 minutes at 5000 rpm. The cells were then resuspended in […] PBS/1% BSA and […] of trypan blue.
# HL-60 cells = test: Cellular differentiation of HL-60, fast scan time course; conditions: 400 ng/ml PMA, fast scan
# Description: (§1) Fast scan analysis was also performed on HL-60 cells that were treated with PMA and DMSO. A time course evaluation of PMA treated HL-60 cells was performed with fast scan data taken at 16 hours, 24 hours, 40 hours, and 72 hours post-treatment with 400 ng/ml PMA. A control sample of HL-60 cells was also tested using EtOH as the vehicle for purposes of comparing the differentiated cells with the undifferentiated HL-60 cells. The PMA-treated and control cells were harvested and trypsinized. The samples were then resuspended in PBS/1% BSA. A set of samples was also obtained and left as pellets at 4° C. for subsequent FACS analysis.
# A time course evaluation of DMSO treated HL-60 cells was performed with fast scan data taken at 16 hours, 24 hours, 40 hours, and 70 hours post-treatment with 1% DMSO. A control sample of HL-60 cells was also tested for purposes of comparing the differentiated cells with the undifferentiated HL-60 cells. The DMSO-treated and control cells were then harvested and resuspended in PBS/1% BSA. A set of samples was also obtained and left as pellets at 4° C. for subsequent FACS analysis.
# [3] = tested on: CD11b expression in HL-60 cells; test: FACS CD11b expression profile; conditions: 400 ng/ml PMA
# Description: as §1
# FIG. 145 illustrates a histogram of the travel distance of the control cells as well as the PMA-treated cells at 16 hours, 24 hours, 40 hours, and 72 hours post-treatment. FIG. 146 illustrates the mean travel distances of the control cells as well as the PMA-treated cells at 16 hours, 24 hours, 40 hours, and 72 hours post-treatment. FIG. 147 illustrates the FACS CD11b expression profile in PMA-treated HL-60 cells as well as the control. CD11b is a known marker of cellular differentiation and is expressed on the surface of differentiating cells. […] The data illustrate that Optophoretic analysis can be used as an assay for the detection and quantification of cellular differentiation. […]
smiles,measurement,setting,value
"CCCCCCCCCCCCCC(=O)O[C@@H]1[C@@H](C)[C@@]2(O)[C@@H](C=C(CO)C[C@]3(O)C(=O)C(C)=C[C@@H]23)[C@@H]2C(C)(C)[C@]12OC(C)=O [PMA, phorbol 12 myristate 13-acetate]",escape velocity as compared to the untreated cells,U937 cells [1],significantly higher escape velocity
same,"escape velocity, Ave.","U937 cells [2]; 10 pg/ml PMA, 1 Hour Activation",14.4
same,"escape velocity, Ave.","U937 cells [2]; 10 pg/ml PMA, 3 Hour Activation",14.5
same,"escape velocity, Ave.","U937 cells [2]; 10 pg/ml PMA, 5 Hour Activation",14.1
same,"escape velocity, Ave.","U937 cells [2]; 100 pg/ml PMA, 1 Hour Activation",14.4
same,"escape velocity, Ave.","U937 cells [2]; 100 pg/ml PMA, 3 Hour Activation",15.5
same,"escape velocity, Ave.","U937 cells [2]; 100 pg/ml PMA, 5 Hour Activation",16.1
same,"escape velocity, Ave.","U937 cells [2]; 1 ng/ml PMA, 1 Hour Activation",14.3
same,"escape velocity, Ave.","U937 cells [2]; 1 ng/ml PMA, 3 Hour Activation",15.1
same,"escape velocity, Ave.","U937 cells [2]; 1 ng/ml PMA, 5 Hour Activation",16.5
same,"escape velocity, Ave.","U937 cells [2]; 10 ng/ml PMA, 1 Hour Activation",14.8
same,"escape velocity, Ave.","U937 cells [2]; 10 ng/ml PMA, 3 Hour Activation",15.2
same,"escape velocity, Ave.","U937 cells [2]; 10 ng/ml PMA, 5 Hour Activation",16.2
same,Optophoretic difference versus control,"U937 cells [2]; two lowest concentrations, 10 pg/ml and 1 pg/ml PMA",showed no Optophoretic difference
same,time after treatment at which Optophoretic analysis detected cellular differentiation into monocytes/macrophages,HL-60 cells,≤ 16 h
same,time after treatment at which a noticeable change in CD11b expression levels was observed,[3],about 40 hours
